Measured values reported in patent US8415393B2, “Anti-bacterial drug targeting of genome maintenance interfaces” (Wisconsin Alumni Research Foundation, priority 2007, dated 2013).
Values after ≈ are worked out from the molar mass of the structure shown. Like-named read-outs stand apart in the source and are kept apart here. Where a SMILES comes first, the peptide text is derived from it. Where no end group is shown, it is not given here.

T1: Exonuclease I/SSB-Ct complex (Escherichia coli, UniProt P04995)
T1 sequence (P04995 whole entry, looked up): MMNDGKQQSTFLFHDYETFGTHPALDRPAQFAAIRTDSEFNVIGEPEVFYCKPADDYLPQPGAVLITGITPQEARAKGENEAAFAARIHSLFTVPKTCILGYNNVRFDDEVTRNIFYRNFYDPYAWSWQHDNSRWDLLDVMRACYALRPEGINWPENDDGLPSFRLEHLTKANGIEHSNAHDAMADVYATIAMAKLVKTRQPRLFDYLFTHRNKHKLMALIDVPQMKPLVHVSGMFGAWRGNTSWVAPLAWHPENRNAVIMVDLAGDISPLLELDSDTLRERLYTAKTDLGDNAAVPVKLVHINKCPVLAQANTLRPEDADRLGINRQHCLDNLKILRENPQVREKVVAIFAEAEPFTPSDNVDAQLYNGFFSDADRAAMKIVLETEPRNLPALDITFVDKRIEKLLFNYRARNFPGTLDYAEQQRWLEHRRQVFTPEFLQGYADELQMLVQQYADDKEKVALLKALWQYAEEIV

T2: E. coli Exonuclease I (Escherichia coli, UniProt P04995 1-475)
T2 construct: also called ExoI; Exol
T2 sequence: T1 sequence (P04995 whole entry, looked up)

B1: WT peptide (WMDFDDDIPF, without a fluorescent moiety) (peptide)
peptide: WMDFDDDIPF
notes: also called unlabeled peptide; SSB-Ct peptide

Columns and labels:
[1] = biological target: T1, Exonuclease I/SSB-Ct complex; assay: Fluorescence polarization competition: inhibition of fluorescein-SSB C-terminal peptide binding to Exonuclease I (HTS and Ki determination); conditions: FIG. 7, unlabeled peptide competition
Protocol: (§1) Peptide binding assays were performed in solution, using the peptides from above, and Exonuclease I, in the absence or presence of various compounds. Different amounts of Exonuclease I (ExoI) were used in the peptide binding assays. […] Fluorescence polarization (FP) was measured at 25° C. in triplicate; the average FP value was plotted with standard deviation of the mean shown as error.
(§2) Concentrated Exonuclease I was dialyzed overnight into 2 liters dilution buffer (DB) (20 mM Tris pH 8.0 HCl, 100 mM NaCl, 1 mM MgCl2, and 1 mM Beta-Mercaptoethanol). […] After sitting at room temperature for 5 min, a liquid handling system was used to aliquot this solution into 384 well plates providing 30 microliters/well. One microliter of 1 mM compound was then added. The screened compounds were obtained from the ChemBridge DIVERSet library (ChemBridge Corporation, San Diego, Calif.), from the Maybridge HitFinder library (Thermo Fisher Scientific, Waltham, Mass.), from the ChemDiv library (Chemical Diversity Labs, San Diego, Calif.), or from the Known Bioactive Library—KBA01.
(§3) The FP (fluorescence polarization) values for each well were read using a (plate reader) 5 minutes after compound addition.
(§4) Increasing amounts of compound were titrated into peptide protein mixture until FP values were lowered to values given by only fluorescently labeled peptide alone. Ki values were determined using the Ki calculator for fluorescence-based competitive binding assays of Prof. Shaomeng Wang, University of Michigan (Nikolovska-Coleska et al., 2004, Anal. Biochem. 332: 261-273).

[2] = biological target: T3, ExoI (Escherichia coli, UniProt P04995); type: binding; conditions: FIG. 26A
T3 construct: made in house

[3] = biological target: ExoI Arg316 Ala variant (Escherichia coli) (UniProt P04995); assay: cell-based or functional assay
[4] = biological target: Escherichia coli Exonuclease I (Escherichia coli) (UniProt P04995); assay: cell-based or functional assay
[5] = test system: Staphylococcus aureus 12598; assay: Bacterial growth assay in LB liquid media, S. aureus; type: cell-based; conditions: Staphylococcus aureus, 12598
Protocol: (§5) 100 μL of LB containing E. coli 1655, E. coli 4213, or S. aureus at A ˜0.05 OD 600 was aliquoted in 96 well plates. One μL of compound in DMSO was added to final concentrations given. Plates were incubated at 37° C. with shaking at 250 RPM. Rate of growth was calculated by determining the average change in OD/hour that took place between hours 3 and 7 (log growth phase). The graphs shown herein are plots of this bacterial growth rate (change in OD/h) against inhibitor concentration in μM.

[6] = test system: B. subtilis; assay: Growth on solid media (MIC; agar plates with compound), B. subtilis; type: cell-based, Bacillus subtilis; conditions: for MIC / growth on agar plates: Bacillus subtilis; for MIC: solid media, B. subtilis; for Bactericidal for B. subtilis: Table 3 info column; for growth on agar plates: 100 μM compound in agar
Protocol: (§6) A number of the tested candidate compounds had profound inhibitory effects on bacterial growth. In addition, it was discovered that the identified drug compounds can slow the growth of a number of other Gram-positive bacterial species. For example, the growth of Bacillus subtilis and Enterococcus faecalis was inhibited when these bacteria were grown on agar plates containing 100 μM of either compound 9 or compound 10.

[7] = test system: HT-29 (human colorectal adenocarcinoma) cells; assay: Mammalian cell toxicity, CellTiter-Glo cell viability assay; type: cell-based
Protocol: The toxicity of the identified antimicrobial candidate compounds was tested using human colorectal adenocarcinoma cells in vitro. […] The mammalian cells were tested using a CellTiter-Glo cell viability assay (Promega, Madison, Wis.).

[8] = test system: red blood cells; assay: In vitro hemolysis; type: cell-based; conditions: for % hemolysis at given concentration: 1 hour; for Hemolysis: Table 3, minimum concentration necessary to lyse red blood cells
Protocol: The identified small molecules were incubated with red blood cells to see what percentage of cells would lyse after 1 hour. Estimated hemolysis data are due to problem with reading absorbance, when the compound absorbs at the same wavelength as heme or if the compound precipitates. In such instances it is difficult to quantitate the absorbance readings; however, visual determination of how many cells have lysed can then be performed, which provides an estimate of cell lysis.

[9] = test system: E. coli (imp4213); assay: MIC on solid media, E. coli; type: cell-based; conditions: Escherichia coli, read-out: MIC (E. coli)
[10] = biological target: Exonuclease I/SSB-Ct complex (Escherichia coli, UniProt P04995); assay: Fluorescence polarization competition: inhibition of fluorescein-SSB C-terminal peptide binding to Exonuclease I (HTS and Ki determination)
Protocol: as §1, §2, §3, §4

[11] = test system: E. coli 4213 (imp4213, compromised cell wall); assay: microbe, parasite or virus in culture; type: cell-based; conditions: Escherichia coli
Protocol: The compromised cell wall allows the chemicals to pass through it more readily.
as §5

[12] = biological target: PriA (Escherichia coli, UniProt P17888); conditions: read-out: Kd, app; SSB-Ct peptide binding by PriA; cited from earlier work
[13] = biological target: RecQ (Escherichia coli, UniProt P15043); conditions: read-out: Kd, app; SSB-Ct peptide binding by RecQ; cited from earlier work
[14] = test system: ExoI nuclease activity; conditions: radiolabeled ssDNA substrate
[15] = biological target: Topoisomerase III (TopoIII)/C-terminal tail of E. coli SSB (Escherichia coli, UniProt P14294); assay: Topoisomerase III peptide binding (fluorescence anisotropy); conditions: 100 μM final concentration, 1% DMSO
Protocol: TopoIII was titrated into 10 nM fluorescent peptide, as described above for the ExoI binding assays. The buffer conditions for this binding assay were: 300 mM NaCl, 20 mM Tris pH 8.0, 10% Glycerol, 1 mM BME (Beta-Mercaptoethanol), and 1% DMSO. Concentrations of TopoIII used are given on the graph in FIG. 24. Changes in anisotropy upon binding were read using PanVera Beacon 2000 FP.
Either unlabeled peptide or various compounds were then added to a final concentration of 100 μM. These compounds and unlabeled peptide were dissolved in DMSO and their addition brought the final concentration of DMSO to 1%.

[16] = test system: Deinococcus radiodurans; assay: Growth on agar plates containing compound, Deinococcus radiodurans; type: cell-based; conditions: tested in a similar manner (100 μM in agar)
Protocol: as §6

[17] = test system: Enterococcus faecalis; assay: Growth on agar plates containing compound, Enterococcus faecalis; type: cell-based; conditions: 100 μM compound in agar
Protocol: as §6

[18] = biological target: T2, E. coli Exonuclease I; assay: fluorescence polarization competition: unlabeled peptide titrated into 1 uM ExoI with 10 nM fluorescein-labeled SSB C-terminal peptide
[19] = Table 3, reduce growth 50% in liquid media, unit not given (Table 5 gives μM), read-out: IC(50) S. aureus
[20] = Table 5, read-out: IC50 μM inhibitor, inhibition of S. aureus growth
[21] = compound listing, bacterial growth in LB, read-out: IC50 Staphylococcus aureus
[22] = HT-29, Table 3, unit inferred, read-out: IC(50) Human cell line
[23] = HT-29 cells, CellTiter-Glo, read-out: IC50
[24] = read-out: IC50 μM inhibitor, inhibition of E. coli growth
[25] = read-out: IC(50) E. coli imp4213

Sequence of Topoisomerase III (TopoIII)/C-terminal tail of E. coli SSB (P14294 whole entry): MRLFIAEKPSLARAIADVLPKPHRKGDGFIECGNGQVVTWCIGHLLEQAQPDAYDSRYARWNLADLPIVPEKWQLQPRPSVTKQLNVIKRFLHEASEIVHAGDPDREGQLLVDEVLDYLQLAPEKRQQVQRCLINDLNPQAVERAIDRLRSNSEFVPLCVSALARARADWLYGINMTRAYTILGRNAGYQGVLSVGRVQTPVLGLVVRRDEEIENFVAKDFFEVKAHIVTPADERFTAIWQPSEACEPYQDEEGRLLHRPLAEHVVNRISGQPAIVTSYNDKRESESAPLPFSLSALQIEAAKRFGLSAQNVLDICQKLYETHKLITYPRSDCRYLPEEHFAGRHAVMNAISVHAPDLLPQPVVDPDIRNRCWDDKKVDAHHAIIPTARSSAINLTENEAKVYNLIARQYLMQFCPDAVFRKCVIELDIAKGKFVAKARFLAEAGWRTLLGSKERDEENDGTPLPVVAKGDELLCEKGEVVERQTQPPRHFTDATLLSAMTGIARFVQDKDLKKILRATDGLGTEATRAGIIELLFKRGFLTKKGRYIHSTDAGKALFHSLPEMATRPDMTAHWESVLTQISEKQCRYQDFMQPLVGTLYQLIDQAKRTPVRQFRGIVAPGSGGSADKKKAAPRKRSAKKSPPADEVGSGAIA
Sequence of PriA (P17888 whole entry): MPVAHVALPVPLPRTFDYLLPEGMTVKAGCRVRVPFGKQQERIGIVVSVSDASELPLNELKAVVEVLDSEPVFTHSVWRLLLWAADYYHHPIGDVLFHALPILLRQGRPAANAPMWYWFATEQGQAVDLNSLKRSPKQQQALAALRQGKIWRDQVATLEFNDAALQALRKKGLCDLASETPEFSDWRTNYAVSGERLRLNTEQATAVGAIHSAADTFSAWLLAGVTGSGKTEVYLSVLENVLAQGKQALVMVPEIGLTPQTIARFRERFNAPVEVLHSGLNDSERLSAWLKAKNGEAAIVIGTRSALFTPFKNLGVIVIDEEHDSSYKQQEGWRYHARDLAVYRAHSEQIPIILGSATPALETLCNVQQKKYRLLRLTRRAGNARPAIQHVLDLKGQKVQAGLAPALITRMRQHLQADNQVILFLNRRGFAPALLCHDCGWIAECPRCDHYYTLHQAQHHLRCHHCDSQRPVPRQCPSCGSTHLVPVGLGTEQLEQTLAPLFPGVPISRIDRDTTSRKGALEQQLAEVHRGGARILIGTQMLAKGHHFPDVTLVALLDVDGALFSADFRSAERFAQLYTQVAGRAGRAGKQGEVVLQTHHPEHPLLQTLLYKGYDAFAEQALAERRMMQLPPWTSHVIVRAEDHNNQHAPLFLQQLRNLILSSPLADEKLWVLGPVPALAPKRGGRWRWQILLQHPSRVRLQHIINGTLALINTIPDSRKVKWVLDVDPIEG
Sequence of RecQ (P15043 whole entry): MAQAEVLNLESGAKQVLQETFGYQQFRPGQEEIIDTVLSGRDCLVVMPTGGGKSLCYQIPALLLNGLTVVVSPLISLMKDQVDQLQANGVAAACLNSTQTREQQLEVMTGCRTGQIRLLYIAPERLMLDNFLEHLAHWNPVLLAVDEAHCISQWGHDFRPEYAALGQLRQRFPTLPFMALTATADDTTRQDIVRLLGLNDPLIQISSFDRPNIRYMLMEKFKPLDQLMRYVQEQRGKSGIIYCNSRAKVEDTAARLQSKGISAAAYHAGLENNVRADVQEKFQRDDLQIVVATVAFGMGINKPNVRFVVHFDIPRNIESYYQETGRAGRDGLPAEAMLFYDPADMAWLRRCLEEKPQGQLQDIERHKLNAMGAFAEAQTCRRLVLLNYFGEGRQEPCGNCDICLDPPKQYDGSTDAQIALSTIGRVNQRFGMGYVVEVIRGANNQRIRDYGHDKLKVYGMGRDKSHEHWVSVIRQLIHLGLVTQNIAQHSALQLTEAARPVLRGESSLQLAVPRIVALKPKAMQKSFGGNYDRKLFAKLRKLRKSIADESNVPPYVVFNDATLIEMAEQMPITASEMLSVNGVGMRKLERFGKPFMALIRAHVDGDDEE

Molecule | IC50 [5, 19] [µM] | IC50 [5, 20] [µM] | IC50 [5, 21] [µM] | MIC [6] [µg/mL] | IC50 [7, 22] [µM] | IC50 [7, 23] [µM] | Hemolysis [8] [µM] | MIC [9] [µg/mL] | Ki [10] [µM] | Ki ([10]; Ki estimates, Table 2) [µM] | Ki ([10]; Ki, compound listing) [µM] | IC50 [11, 24] [µM] | IC50 ([11]; read-out: IC50 E. coli 4213) [µM] | IC50 [11, 25] [µM] | further results
DDDIPF: unlabeled SSB C-terminal peptide with three residues (MDF) missing from the N-terminus [reference compound] |  |  |  |  |  |  |  |  |  |  |  |  |  |  | amount needed to titrate away the fluorescent peptide, relative to full-length peptide [1]: ten-fold more
WDFMDDPFID [F-mixed] |  |  |  |  |  |  |  |  |  |  |  |  |  |  | ExoI binding to control peptides relative to F-SSB-Ct [2]: minimal
E. coli single-stranded DNA-binding protein (from UniProt P0AGE0 2-178) |  |  |  |  |  |  |  |  |  |  |  |  |  |  | SSB-stimulated ExoI nuclease activity [3]: < 2 fold; ExoI nuclease activity on radiolabeled ssDNA, stimulation by SSB [4]: 4 fold
O=C(O)C(Cc1ccccc1)N1C(=O)/C(=C/c2cccc(Br)c2)SC1=S (centres unmarked) [Compound 3, 2-[5-(3-bromobenzylidene)-4-oxo-2-thioxo-1,3-thiazolidin-3-yl]-3-phenylpropanoic acid] | 9 | 9 | 10 | 3.6 (≈ 8.03 µM) | 12 | > 100 | ~100 | 3.6 (≈ 8.03 µM) | 2.5 | 2.5 | ~2.5 | 6 | 5.5 | 6 | Bactericidal for B. subtilis [6]: Compound 3; also called BOTP. Came from original Maybridge HTS collection. Bactericidal for B. subtilis; % hemolysis at given concentration ([8]; 100 μM): 20% 100
CC[C@H](C)[C@H](NC(=O)[C@H](CC(=O)O)NC(=O)[C@H](CC(=O)O)NC(=O)[C@H](CC(=O)O)NC(=O)[C@H](Cc1ccccc1)NC(=O)[C@H](CC(=O)O)NC(=O)[C@H](CCSC)NC(=O)[C@@H](N)Cc1c[nH]c2ccccc12)C(=O)N1CCC[C@H]1C(=O)N[C@@H](Cc1ccccc1)C(=O)O [WT peptide] (H-WMDFDDDIPF-OH; N-terminus assumed) |  |  |  |  |  |  |  |  |  |  |  |  |  |  | Kd [12]: 2 µM; Kd [13]: 6 µM; SSB stimulation of ExoI nuclease activity [14]: no apparent effect; inhibition of fluorescent peptide binding to TopoIII (anisotropy) [15]: did not bring the anisotropy values down to the baseline
CC(/C=C1\SC(=S)N(C(C(=O)O)c2ccccc2)C1=O)=C\c1ccccc1 (centres unmarked) [Compound 8, [5-(2-methyl-3-phenyl-2-propen-1-ylidene)-4-oxo-2-thioxo-1,3-thiazolidin-3-yl](phenyl)acetic acid] | 29 | 30 | 29 | 6.3 (≈ 15.9 µM) | > 100 | > 100 | ~200 | 4 (≈ 10.1 µM) | 4 | 4 | ~4 | 11 | 11 | 11 | Bactericidal for B. subtilis [6]: Compound 8; also called MPTA. Came from original Maybridge HTS collection. Bactericidal for B. subtilis; % hemolysis at given concentration ([8]; 200 μM): estimated 0% 200; % hemolysis at given concentration ([8]; 400 μM): estimated 90% 400 uM
COc1ccc(Nc2cc(C(F)(F)F)ccc2Cl)c(C(=O)O)c1 [Compound 10, 2-[2-chloro-5-(trifluoromethyl)anilino]-5-methoxybenzoic acid] | 20 | 20 | 18 | 11.1 (≈ 32.1 µM) | > 100 | 60 | ~800 | 12.3 (≈ 35.6 µM) | 0.1 | 0.35 | ~0.125 | 30 | 30 | 30 | growth on agar plates [6]: inhibited; % hemolysis at given concentration ([8]; 400 μM): 0% 400; % hemolysis at given concentration ([8]; 800 μM): 85% at 800 μM; growth on agar plates [16]: inhibited; inhibition of fluorescent peptide binding to TopoIII (anisotropy) [15]: inhibit binding; growth on agar plates [17]: inhibited
CC(C)(C)C1=NN(c2nc3ccc(Cl)cc3s2)C(=O)C1 [Compound 9, 3-(tert-butyl)-1-(6-chloro-1,3-benzothiazol-2-yl)-4,5-dihydro-1H-pyrazol-5-one] | 6 | 6 | 5.5 | 6.2 (≈ 20.1 µM) | > 100 | 38 | >800 | 9 (≈ 29.2 µM) | 0.8 | 2.2 | ~0.773 | 6 | 6 | 6 | growth on agar plates [6]: inhibited; % hemolysis at given concentration ([8]; >800 μM): 0% >800; growth on agar plates [16]: inhibited; growth on agar plates [17]: inhibited
B1 |  |  |  |  |  |  |  |  |  |  |  |  |  |  | Ki [18]: 0.053 µM
